Data: patent US20090105218A1, “CRTH2 Receptor Ligands For Therapeutic Use” (7TM PHARMA A/S, priority 2004, published 2009)

Each compound was assayed against T1, human CRTH2 receptor (Homo sapiens, UniProt Q9Y5Y4, V204A) (assay: CRTH2 receptor binding assay ([3H]PGD2 competition on whole transfected cells)). Conditions: competition binding with 0.1 nM [3H]PGD2, whole cells expressing CRTH2, 3 h at 4° C.
T1 construct: expressed in transfected cells; host or cells: COS-7 (transient transfection)
T1 sequence (Q9Y5Y4 1-395 V204A): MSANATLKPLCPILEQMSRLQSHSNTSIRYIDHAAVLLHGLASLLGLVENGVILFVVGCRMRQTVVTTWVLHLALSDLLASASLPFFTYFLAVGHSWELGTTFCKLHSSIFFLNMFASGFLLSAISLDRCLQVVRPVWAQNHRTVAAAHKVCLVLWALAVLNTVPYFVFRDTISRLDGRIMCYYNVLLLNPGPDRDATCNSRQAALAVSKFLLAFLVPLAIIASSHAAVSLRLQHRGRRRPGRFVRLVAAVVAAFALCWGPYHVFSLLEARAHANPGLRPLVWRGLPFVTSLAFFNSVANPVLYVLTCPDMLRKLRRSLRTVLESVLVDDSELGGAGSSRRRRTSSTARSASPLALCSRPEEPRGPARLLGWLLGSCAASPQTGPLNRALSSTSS
From the text: Generation/origin of the cDNA Constructs. The coding sequence of the human CRTH2 receptor (genbank accession no NM_004778) was amplified by PCR from a human hippocampus cDNA library and inserted into the pcDNA3.1(+) expression vector (invitrogen) via 5′ HindIII and 3′ EcoRI. The sequence identity of the construct was verified by restriction endonuclease digests and sequencing in both directions on an ABI Prism (Applied Biosystems, Foster City, Calif.).
Cell Culture and Transfection. COS-7 cells were grown in Dulbecco's modified Eagle's medium (DMEM) 1885 supplemented with 10% fetal bovine serum, 100 units/ml penicillin, […] streptomycin, and kept at 37° C. in a 10% CO2 atmosphere. HEK293 cells were maintained in Minimum Essential medium (MEM) supplemented with 10% (v/v) heat inactivated fetal calf serum (HIFCS), 2 mM Glutamax™-I, 1% non essential amino acids (NEAA), 1% sodium pyruvate and 10 μg/ml gentamicin. For binding experiments, COS7 cells were transiently transfected with the CRTH2 receptor using a calcium phosphate-DNA coprecipitation method with the addition of chloroquine (as described by Holst B, Hastrup H, Raffetseder U, Martini L, Schwartz T W. J Biol. Chem. 2001 Jun. 8; 276(23):19793-9.)
Binding assay. 24 h after transfection COS-7 cells were seeded into 96 well plates at a density of 30.000 cells/well. Competition binding experiments on whole cells were then performed about 18-24 h later using 0.1 nM [^3H]PGD2 (NEN, 172 Ci/mmol) in a binding buffer consisting of HBSS (GIBCO) and 10 mM HEPES. Competing ligands were diluted in DMSO which was kept constant at 1% (v/v) of the final incubation volume. Total and nonspecific binding were determined in the absence and presence of 10 μM PGD2. Binding reactions were routinely conducted for 3 h at 4° C. and terminated by 2 washes (100 μl each) with ice cold binding buffer. Radioactivity was determined by liquid scintillation counting in a TOPCOUNTER (Packard) following over night incubation in Microscint 20. Stable HEK293 cells were seeded at a density of 30.000 cells/well 18-24 h prior to the binding assay which was performed essentially as described for COS7 cells above. Determinations were made in duplicates.
Curve analysis was performed with the GraphPadPrism software 3.0 (Graphpad Prism Inc., San Diego, USA) and IC50 values were calculated as a measure of the antagonistic potencies.

IC50 [nM]	SMILES
> 5000	CC(=O)c1ccc(NS(=O)(=O)c2cc(C(=O)Nc3ccccc3C(=O)O)ccc2C)cc1 [B65]
500 to 5000	Cc1ccc(NS(=O)(=O)c2cccc(C(=O)Nc3ccccc3C(=O)O)c2)cc1 [B46]
500 to 5000	CCN(CC)S(=O)(=O)c1cc(C(=O)Nc2ccccc2C(=O)O)ccc1Br [B69]
500 to 5000	O=C(Nc1ccccc1C(=O)O)c1ccc(Br)c(S(=O)(=O)NCc2ccccc2)c1 [B50]
500 to 5000	COc1ccc(NS(=O)(=O)c2cccc(C(=O)Nc3ccccc3C(=O)O)c2)cc1 [B48]
500 to 5000	O=C(Nc1ccccc1C(=O)O)c1cc(S(=O)(=O)Nc2ccc(Br)cc2)ccc1Cl [B58]
500 to 5000	O=C(Nc1ccccc1C(=O)O)c1cccc(S(=O)(=O)NC2CCCCC2)c1 [B66]
> 5000	Cc1ccc(S(=O)(=O)N2CCOCC2)cc1C(=O)Nc1ccccc1C(=O)O [B78]
> 5000	O=C(Nc1ccccc1C(=O)O)c1cccc(S(=O)(=O)N2CCOCC2)c1 [B68]
500 to 5000	O=C(Nc1ccc(C(=O)Nc2ccccc2C(=O)O)cc1)c1ccc(Br)cc1 [B45]
> 5000	O=C(Nc1ccccc1C(=O)O)c1cc(S(=O)(=O)N2CCOCC2)ccc1Cl [B67]
500 to 5000	Cc1cccc(NS(=O)(=O)c2ccc(Cl)c(C(=O)Nc3ccccc3C(=O)O)c2)c1 [B57]
500 to 5000	CCOc1ccc(NS(=O)(=O)c2cc(C(=O)Nc3ccccc3C(=O)O)ccc2C)cc1 [B64]
500 to 5000	Cc1ccc(C(=O)Nc2ccccc2C(=O)O)cc1S(=O)(=O)N1CCOCC1 [B71]
500 to 5000	O=C(Nc1ccccc1C(=O)O)c1cccc(S(=O)(=O)Nc2ccccc2)c1 [B47]
500 to 5000	Cc1ccc(C(=O)Nc2ccccc2C(=O)O)cc1S(=O)(=O)N1CCCCCC1 [B75]
500 to 5000	COc1ccccc1NS(=O)(=O)c1cccc(C(=O)Nc2ccccc2C(=O)O)c1 [B60]
500 to 5000	Cc1ccccc1NS(=O)(=O)c1cccc(C(=O)Nc2ccccc2C(=O)O)c1 [B53]
< 500	Cc1ccc(C(=O)Nc2ccccc2C(=O)O)cc1S(=O)(=O)Nc1cccc(Cl)c1 [B62]
500 to 5000	O=C(Nc1ccccc1C(=O)O)c1cc(S(=O)(=O)N2CCCC2)c(Cl)cc1Cl [B80]
500 to 5000	Cc1ccc(C(=O)Nc2ccccc2C(=O)O)cc1S(=O)(=O)Nc1ccc(F)cc1 [B63]
500 to 5000	COc1ccc(NS(=O)(=O)c2cc(C(=O)Nc3ccccc3C(=O)O)ccc2C)cc1 [B51]
< 500	Cc1ccc(C(=O)Nc2ccccc2C(=O)O)cc1S(=O)(=O)Nc1ccc(I)cc1 [B59]
500 to 5000	O=C(Nc1ccccc1C(=O)O)c1cc(S(=O)(=O)N2CCCC2)ccc1Cl [B79]
< 500	O=C(Nc1ccccc1C(=O)O)c1cc(S(=O)(=O)N2CCCCC2)c(Cl)cc1Cl [B70]
500 to 5000	O=C(Nc1ccccc1C(=O)O)c1cc(S(=O)(=O)N2CCCCCC2)ccc1Cl [B77]
500 to 5000	O=C(Nc1ccc(O)cc1C(=O)O)c1cccc(NC(=O)c2ccco2)c1 [B44]

The next lines start with the compound.

SMILES	IC50 [nM]
O=C(Nc1ccc(Br)cc1C(=O)O)c1cccc(S(=O)(=O)Nc2ccc(OC(F)(F)F)cc2)c1 [B14, 5-Bromo-2-[3-(4-trifluoromethoxyphenylsulfamoyl)benzoylamino]benzoic acid]	500 to 5000
O=C(Cc1ccccc1)Nc1cccc(C(=O)Nc2ccccc2C(=O)O)c1 [B37]	500 to 5000
COc1ccc(OCC(=O)Nc2cccc(C(=O)Nc3ccccc3C(=O)O)c2)cc1 [B39]	500 to 5000
O=C(Nc1cccc(C(=O)Nc2ccccc2C(=O)O)c1)c1ccc(I)cc1 [B43]	< 500
O=C(Nc1ccc(Cl)cc1C(=O)O)c1cccc(S(=O)(=O)Nc2ccc(F)cc2)c1 [B31, 5-Chloro-2-[3-(4-fluorophenylsulfamoyl)benzoylamino]benzoic acid]	< 500
O=C(Nc1ccccc1C(=O)O)c1cccc(NS(=O)(=O)c2ccc(F)cc2)c1 [B7, 2-[3-(4-Fluoro-benzenesulfonylamino)benzoylamino]benzoic acid]	500 to 5000
O=C(Nc1ccccc1C(=O)O)c1cccc(NC(=O)C(c2ccccc2)c2ccccc2)c1 [B36]	< 500
O=C(/C=C/c1ccc(OC(F)(F)F)cc1)Nc1cccc(C(=O)Nc2ccccc2C(=O)O)c1 [B2, 2-{3-[(E)-3-(4-Trifluoromethoxyphenyl)acryloylamino]benzoylamino}benzoic acid]	< 500
Cc1c(S(=O)(=O)Nc2ccc(OC(F)(F)F)cc2)csc1C(=O)Nc1ccccc1C(=O)O [B20, 2-[3-Methyl-4-(4-trifluoromethoxyphenylsulfamoyl)thiophene-2-carbonylamino]benzoic acid]	< 500
O=C(Nc1ccc(Br)cc1C(=O)O)c1cccc(S(=O)(=O)Nc2ccc(I)cc2)c1 [B17, 5-Bromo-2-[3-(4-iodophenylsulfamoyl)benzoylamino]benzoic acid]	< 500
O=C(Nc1ccccc1C(=O)O)c1ccc(Br)c(S(=O)(=O)Nc2cccc(Oc3ccccc3)c2)c1 [B21, 2-[4-Bromo-3-(3-phenoxyphenylsulfamoyl)benzoylamino]benzoic acid]	< 500
Cc1ccc(S(=O)(=O)Nc2cccc(C(=O)Nc3ccccc3C(=O)O)c2)cc1 [B5, 2-[3-(Toluene-4-sulfonylamino)benzoylamino]benzoic acid]	500 to 5000
CCCOc1cccc(C(=O)Nc2cccc(C(=O)Nc3ccccc3C(=O)O)c2)c1 [B41]	< 500
O=C(Nc1ccc(Br)cc1C(=O)O)c1cccc(S(=O)(=O)Nc2ccc(F)cc2)c1 [B29, 5-Bromo-2-[3-(4-fluorophenylsulfamoyl)benzoylamino]benzoic acid]	< 500
Cc1c(S(=O)(=O)Nc2ccc(Br)cc2)csc1C(=O)Nc1ccc(Br)cc1C(=O)O [B27, 5-Bromo-2-[4-(4-bromophenylsulfamoyl)-3-methylthiophene-2-carbonylamino]benzoic acid]	< 500
Cc1c(S(=O)(=O)Nc2ccc(I)cc2)csc1C(=O)Nc1ccccc1C(=O)O [B24, 2-[4-(4-Iodophenylsulfamoyl)-3-methylthiophene-2-carbonylamino]benzoic acid]	< 500
O=C(Nc1ccccc1C(=O)O)c1ccc(Br)c(S(=O)(=O)Nc2ccc(I)cc2)c1 [B23, 2-[4-Bromo-3-(4-iodophenylsulfamoyl)benzoylamino]benzoic acid]	< 500
O=C(Nc1ccc(Br)cc1C(=O)O)c1cccc(S(=O)(=O)Nc2cccc(Oc3ccccc3)c2)c1 [B16, 5-Bromo-2-[3-(3-phenoxyphenylsulfamoyl)benzoylamino]benzoic acid]	< 500
O=C(Nc1ccccc1C(=O)O)c1ccc(Br)c(S(=O)(=O)Nc2ccc(OC(F)(F)F)cc2)c1 [B19, 2-[4-Bromo-3-(4-trifluoromethoxyphenylsulfamoyl)benzoylamino]benzoic acid]	< 500
COc1ccc(C(=O)Nc2cccc(C(=O)Nc3ccccc3C(=O)O)c2)cc1 [B11, 2-[3-(4-Methoxybenzoylamino)benzoylamino]benzoic acid]	500 to 5000
Cc1ccc(OCC(=O)Nc2cccc(C(=O)Nc3ccccc3C(=O)O)c2)cc1C [B32]	< 500
O=C(COc1ccc(Cl)cc1)Nc1cc(C(=O)Nc2ccc(I)cc2C(=O)O)ccc1Cl [B12, 2-{4-Chloro-3-[2-(4-chloro-phenoxy)acetylamino]benzoylamino}-5-iodobenzoic acid]	500 to 5000
O=C(Nc1ccc(OC(F)(F)F)cc1)Nc1cccc(C(=O)Nc2ccccc2C(=O)O)c1 [B8, 2-{3-[3-(4-Trifluoromethoxyphenyl)ureido]benzoylamino}benzoic acid]	500 to 5000
O=C(Nc1ccc(Br)cc1C(=O)O)c1ccc(Br)c(S(=O)(=O)Nc2ccc(Br)cc2)c1 [B26, 5-Bromo-2-[4-bromo-3-(4-bromophenylsulfamoyl)benzoylamino]benzoic acid]	< 500
Cc1c(S(=O)(=O)Nc2ccc(Br)cc2)csc1C(=O)Nc1ccccc1C(=O)O [B25, 2-[4-(4-Bromophenylsulfamoyl)-3-methylthiophene-2-carbonylamino]-benzoic acid]	< 500
